# How the values were obtained:
# activated human MoDCs = experiment: Human MoDC IL-23 secretion assay; format: cell-based; details: PGE1-OH (10 nM); LPS/R-848 activated human MoDCs, 24 h; read-out: IC50 (Ave. of two experiments), inhibiting PGE1-OH enhanced IL-23 production
# Procedure: In vitro human monocytes derived DC assay. CD14^+ cells were purified from human PBMCs using Miltenyi CD14 microbeads, and differentiated with human GM-CSF (500 U/ml)+human IL-4 (500 U/ml) in complete RPMI medium containing 10% charcoal-stripped FBS for […]. The unattached imDCs were stimulated with LPS (10 ng/ml)+R-848 (2.5 μg/ml) with or without addition of EP4 agonist/antagonist or anti-PGE2 Ab at the concentrations indicated for 24 h. IL-23 in culture supernatants were measured by ELISA (eBioscience).
# Human CD14^+ monocytes were differentiated into imDCs with GM-CSF plus IL-4 for 7 days and re-stimulated with LPS/R-848 in the presence or absence of exogenous PGE1-OH (1-100 nM) and with and without ER-819762 (FIG. 13) or ER-819924 or anti-PGE2 Ab (FIG. 14) for 24 h. IL-23 secretion in culture supernatants was measured by ELISA. […] IC50 values of representative compounds in human MoDC IL-23 secretion assay.
# human T-bet = human T-bet (Homo sapiens, UniProt Q9UL17); experiment: HEKT-bet-luc assay (normalized); format: cell-based; details: reference compound used for normalization; read-out: established potency of the reference compound (IC50)
# Procedure: HEKT-bet-luc assay: This assay measures a T-bet dependent reporter (luciferase) activity in engineered HEK cells that express a human T-bet and a T-box responsive element driving luciferase reporter. HEKT-bet cells were plated at 2×10^4/well in 96-well plate and compound was added into cell culture for 24 hours. Luciferase activity was measured by adding 50 μl of Steady-Glo reagent (Promega) and samples were read in Victor V reader (PerkinElmer). The activity of compound was determined by comparing compound treated samples to non-compound treated vehicle controls. The IC50 values were calculated utilizing a maximum value corresponding to the amount of luciferase in the absence of a test compound and a minimum value corresponding to a test compound value obtained at maximum inhibition.
# Determination of Normalized HEKT-bet IC50 values: Compounds were assayed in microtiter plates. […] The un-normalized IC50 value for a particular compound was divided by the IC50 value determined for the reference compound in the same microtiter plate to provide a relative potency value. […]
# Exemplary compounds of the present invention were assayed according to the methods set forth above in the HEKT-bet-luc assay described above. Table 2 below set forth exemplary compounds of the present invention having an IC50 of up to the indicated amount (μM) as determined by the normalized HEKT-bet-luc assay described above.
# [1] = test system: activated mouse CD4+ T cells; experiment: IL-17 production in activated mouse CD4+ T cells; format: cell-based; details: anti-CD3/anti-CD28 stimulated CD4+ T cells
# Procedure: To study the effect of EP4 agonist/antagonist on IL-17 production, total CD4^+ T cells from C57BL/6 mice were activated with plate-bound anti-CD3 (2 μg/ml) plus soluble anti-CD 28 (2 μg/ml) in the presence or absence of IL-23 (10 ng/ml) or EP4 agonist/antagonists at indicated concentrations for 3-5 days. Culture supernatants were analyzed by IL-17 ELISA, and cell pellets were used to measure cell proliferation with CellTite-Glo reagents.
# To investigate whether EP4 also plays a role in a Th17 response, the effect of EP4 activation by PGE2 or EP4 agonist on IL-17 production in activated mouse CD4^+ T cells was examined. Total CD4^+ T cells were stimulated with anti-CD3/anti-CD28 with and without IL-23 and in the presence or absence of PGE2 or EP4 agonist PGE1-OH (0.1 nM to 1000 nM) for 3-5 days. IL-17 in culture supernatants was measured by ELISA and cell proliferation was measured by CellTiter-glo.
# EP4 = biological target: T1, EP4 (Homo sapiens, UniProt P35408); experiment: PGE2 induced CRE-PLAP reporter assay in SE302 cells; format: cell-based; details: tested at 0.3 nM to 10 μM
# T1 construct: SE302 cells that express endogenous EP4; endogenous in cells; host or cells: SE302 cells
# Procedure: CRE-PLAP reporter assay. SE302 cells that express endogenous EP4 were stimulated with PGE2 in the presence or absence of ER-819762 for overnight, and PLAP activity was measured.
# Naive CD4 T cells = experiment: Mouse Th1 differentiation assay; format: cell-based; details: for effect on Th1 differentiation: added during Th1 differentiation, 3 days
# Procedure: In vitro T cell assays. Naive CD4^+ T cells were purified from spleens of either BALB/c or D011.10 mice by Robosep as described by the manufacture. For BALB/c mice, 1×10^5 of CD4^+ T cells were cultured for 3-6 days in a 96-well plate in 100 μl of complete RPMI medium (Cellgro) containing either 10% of regular fetal bovine serum (Hyclone) or charcoal stripped FBS (Hyclone) (when exogenous PGE2 or EP4 agonists were added to the culture) under either neutral condition (1 μg/ml of plate-bound anti-CD3+1 μg/ml of soluble anti-CD28+10 ng/ml of mouse IL-2) or under Th1 promoting condition (neutral+5 ng/ml of mouse IL-12+10 μg/ml of anti-IL-4) or under Th2 differentiation condition (neutral+10 ng/ml of mouse IL-4+10 μg/ml of […]). IFNγ or IL-4 in culture supernatants were detected by ELISA. Cell pellets were used to measure cell proliferation with either Alamar blue or CellTiter-Glo reagents according to the instructions of the manufacture. For D011.10 mice, mitomycin C treated splenocytes from BALB/c mice were used as antigen presenting cells and co-cultured with naive CD4^+ T cells in 5 to 1 ratio (5×10^5 of mitomycin C treated splenocytes in 100 μl medium+1×10^5 CD^4 T cells in 100 μl medium) and stimulated with OVA peptide (0.3 ng/ml) under either neutral, Th1 or Th2 promoting conditions as described above. EP4 agonists, antagonists or anti-PGE2 Ab were added during Th cell differentiation.
# To investigate whether EP4 activation plays a role in Th1 differentiation, the effect of PGE2 or EP4 agonist and anti-PGE2 antibody was examined in a mouse Th1 differentiation assay. Naive CD4 T cells were differentiated with Th1 promoting agents for 3 days. Th1 cytokine IFNγ in culture supernatants was measured by ELISA. Cell proliferation was measured by Alamar blue assay. PGE2 or EP4 agonist PGE1-OH was added during Th1 differentiation.
# CAIA mouse = experiment: Suppression of arthritis development in CAIA; format: in vivo; details: once daily PO day 0 to day 7
# Procedure: Suppression of arthritis development in CAIA. BALB/c mice were injected i.v. with 1 mg of anti-type II collagen antibody at day 0, and 3 days later 25 μg of LPS was injected i.p. with active compound and methotrexate (MTX) was given once daily PO from day 0 to day 7. Arthritis score and body weight was monitored over the course of study.
# T1 sequence (P35408 whole entry): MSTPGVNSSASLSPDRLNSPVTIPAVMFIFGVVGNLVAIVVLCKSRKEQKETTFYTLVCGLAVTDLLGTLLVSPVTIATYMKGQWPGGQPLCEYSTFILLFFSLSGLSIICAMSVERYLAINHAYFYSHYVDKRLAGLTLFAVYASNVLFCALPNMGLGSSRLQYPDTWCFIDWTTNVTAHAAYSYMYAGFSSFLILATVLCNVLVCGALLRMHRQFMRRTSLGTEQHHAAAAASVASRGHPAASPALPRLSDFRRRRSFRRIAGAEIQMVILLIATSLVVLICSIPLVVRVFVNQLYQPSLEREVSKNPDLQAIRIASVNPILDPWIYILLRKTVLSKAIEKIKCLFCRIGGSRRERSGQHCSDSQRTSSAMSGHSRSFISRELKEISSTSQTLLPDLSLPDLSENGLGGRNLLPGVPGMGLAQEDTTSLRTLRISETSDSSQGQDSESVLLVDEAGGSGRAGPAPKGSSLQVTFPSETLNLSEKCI
# Sequence of human T-bet (Q9UL17 whole entry): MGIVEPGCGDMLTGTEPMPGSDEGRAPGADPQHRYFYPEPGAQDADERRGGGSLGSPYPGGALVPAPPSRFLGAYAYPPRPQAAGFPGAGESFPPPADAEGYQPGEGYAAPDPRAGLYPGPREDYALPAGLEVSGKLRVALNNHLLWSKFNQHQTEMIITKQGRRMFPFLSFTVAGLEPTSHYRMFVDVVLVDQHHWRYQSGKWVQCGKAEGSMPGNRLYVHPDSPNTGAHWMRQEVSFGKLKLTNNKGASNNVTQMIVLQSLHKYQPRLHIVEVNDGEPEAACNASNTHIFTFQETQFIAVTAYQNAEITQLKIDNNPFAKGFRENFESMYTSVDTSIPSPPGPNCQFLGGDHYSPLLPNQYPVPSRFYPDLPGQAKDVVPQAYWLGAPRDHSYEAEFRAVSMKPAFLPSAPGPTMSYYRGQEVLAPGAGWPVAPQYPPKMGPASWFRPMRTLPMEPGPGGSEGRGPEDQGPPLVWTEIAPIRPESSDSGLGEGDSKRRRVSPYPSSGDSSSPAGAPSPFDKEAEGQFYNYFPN
smiles,measurement,setting,value
CCN1C(=O)N2Cc3cc(OC)cc(OC)c3[C@@H](C)C=C2C12CCN(Cc1nc(C)oc1C)CC2 [ER-811283-01],IC50,activated human MoDCs,57 nM
COCCN1C(=O)N2Cc3cc(OC)cc(OC)c3C(C)(C)C=C2C12CCN(Cc1cc(OC)cc(OC)c1)CC2 [ER-819544],IC50,human T-bet,35 nM
CCN1C(=O)N2Cc3cc(OC)cc(OC)c3[C@@H](C)C=C2C12CCN(Cc1cc(C)cc(C)c1)CC2 [ER-819762-01],effect on PGE2/PGE1-OH enhanced IL-17 production,[1],suppressed the activity
CCN1C(=O)N2Cc3cc(OC)cc(OC)c3[C@@H](C)C=C2C12CCN(Cc1cc(C)cc(C)c1)CC2 [ER-819762],effect on PGE2/PGE1-OH enhanced IL-17 production,[1],suppresses
same,inhibition of PGE2 induced CRE-PLAP reporter activity,EP4,potent inhibitory activities
same,added activity to anti-PGE2 Ab in Th1 differentiation,Naive CD4 T cells; combination with anti-PGE2 Ab,no added activity
same,IC50,activated human MoDCs,40 to 200 nM
CCN1C(=O)N2Cc3cc(OC)cc(OC)c3[C@@H](C)C=C2C12CCN(Cc1c[nH]nc1C)CC2 [ER-819826-01],IC50,activated human MoDCs,185 nM
CCN1C(=O)N2Cc3cc(OC)cc(OC)c3[C@@H](C)C=C2C12CCN(Cc1cccn1C)CC2 [ER-819924],inhibition of PGE2 induced CRE-PLAP reporter activity,EP4,potent inhibitory activities
same,IC50,activated human MoDCs,< 200 nM
"CCCCC[C@H](O)/C=C/[C@H]1[C@H](O)CC(=O)[C@@H]1CCCCCCCO [PGE1-OH, PGE1-alcohol]",effect on Th1 differentiation,Naive CD4 T cells,enhanced Th1 differentiation
"CCCCC[C@H](O)/C=C/[C@H]1[C@H](O)CC(=O)[C@@H]1C/C=C\CCCC(=O)O [PGE2, prostaglandin E2]",effect on Th1 differentiation,Naive CD4 T cells,enhanced Th1 differentiation
CN(Cc1cnc2nc(N)nc(N)c2n1)c1ccc(C(=O)N[C@@H](CCC(=O)O)C(=O)O)cc1 [methotrexate],activity in CAIA model,CAIA mouse,not particularly active
